From ChEMBL document CHEMBL5512615, “Targeting autophagy drug discovery: Targets, indications and development trends” (Eur J Med Chem, 2024)
Where a SMILES comes first, the peptide text is derived from it. [ ]: non-standard residue; d: D form. pY = N[C@@H](Cc1ccc(OP(=O)(O)O)cc1)C(=O)O

What was measured:
[1] = target: T1, Testis-expressed protein 264 (Homo sapiens, UniProt Q9Y6I9)
T1 sequence (Q9Y6I9 whole entry): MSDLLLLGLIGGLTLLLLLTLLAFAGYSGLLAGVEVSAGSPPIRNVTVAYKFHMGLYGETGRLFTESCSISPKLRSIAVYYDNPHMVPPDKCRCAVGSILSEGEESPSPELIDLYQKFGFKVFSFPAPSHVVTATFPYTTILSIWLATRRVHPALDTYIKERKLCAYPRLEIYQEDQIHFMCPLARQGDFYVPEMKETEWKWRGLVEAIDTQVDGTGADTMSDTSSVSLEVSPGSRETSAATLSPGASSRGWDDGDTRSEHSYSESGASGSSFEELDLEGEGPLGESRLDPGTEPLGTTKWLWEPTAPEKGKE
Description: Inhibition of TEX264 (unknown origin)

[2] = cells; conditions: Homo sapiens, NCI-H1975
Description: Inhibition of MAPK/ERK signaling pathway in human NCI-H1975 cells

[3] = target: Tubulin; conditions: k562
Description: Inhibition of microtubule polymerization in human K562 cells measured for 60 mins by fluorescence based analysis

[4] = target: T2, 5'-AMP-activated protein kinase catalytic subunit alpha-2 (Homo sapiens, UniProt P54646)
[5] = cells; conditions: Homo sapiens, HK-2, 6 h
Description: Downregulation of BNIP3 expression in human HK-2 cells incubated for 6 hrs by Western blot analysis

[6] = system: HCT-116; test: cells; conditions: Homo sapiens, HCT-116, 24 h
Description: Induction of autophagy in human HCT-116 cells assessed as increase in p62 expression upto 5 uM incubated for 24 hrs by Western blot analysis

[7] = target: T2, 5'-AMP-activated protein kinase catalytic subunit alpha-2; remark: listed apart in the source
Description: Agonist activity at AMPK (unknown origin)

[8] = target: Phosphatidylinositol 3-kinase catalytic subunit type 3 (Homo sapiens, UniProt Q8NEB9)
Description: Inhibition of human PIK3C3 using PI as substrate by ADP-Glo assay

[9] = target: T3, Phosphatidylinositol 4,5-bisphosphate 3-kinase catalytic subunit alpha isoform (Homo sapiens, UniProt P42336)
Description: Inhibition of PI3Kalpha (unknown origin) by kinase profiling assay

[10] = target: T4, Translocator protein (Mus musculus, UniProt P50637); test: Binding affinity to mouse TSPO expressed in Escherichia coli assessed as inhibition constant
[11] = target: T5, Tumour suppressor protein p53/Mdm4 (Homo sapiens, UniProt O15151+P04637)
Description: Binding affinity to MDM4/p53 interaction (unknown origin) assessed as inhibition constant

[12] = target: T5, Tumour suppressor protein p53/Mdm4; remark: listed apart in the source
Description: Inhibition of MDM4/p53 (unknown origin)

[13] = cells; conditions: Homo sapiens, PC-3
Description: Inhibition of V-ATPase activity in lysosomes of human PC-3 cells

[14] = target: T2, 5'-AMP-activated protein kinase catalytic subunit alpha-2; remark: listed apart in the source
Description: Inhibition of AMPK signalling pathway in human HepG2 cells

[15] = target: Tumour suppressor p53/oncoprotein Mdm2 (Homo sapiens, UniProt P04637+Q00987)
Description: Inhibition of MDM2/p53 interaction (unknown origin)

[16] = target: T2, 5'-AMP-activated protein kinase catalytic subunit alpha-2; remark: listed apart in the source
Description: Binding affinity to AMPK (unknown origin) assessed as inhibition constant

[17] = target: T6, Cysteine protease ATG4B (Homo sapiens, UniProt Q9Y4P1)
T6 sequence (Q9Y4P1 whole entry): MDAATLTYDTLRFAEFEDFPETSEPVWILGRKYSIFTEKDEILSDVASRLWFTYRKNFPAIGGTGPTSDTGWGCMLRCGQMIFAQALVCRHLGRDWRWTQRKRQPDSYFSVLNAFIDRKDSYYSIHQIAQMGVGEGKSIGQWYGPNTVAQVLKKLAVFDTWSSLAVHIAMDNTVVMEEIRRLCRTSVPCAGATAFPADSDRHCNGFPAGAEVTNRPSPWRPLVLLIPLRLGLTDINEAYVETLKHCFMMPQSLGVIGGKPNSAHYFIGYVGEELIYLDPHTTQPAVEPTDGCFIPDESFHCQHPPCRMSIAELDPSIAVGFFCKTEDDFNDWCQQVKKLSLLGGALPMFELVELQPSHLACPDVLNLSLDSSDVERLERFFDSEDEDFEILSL
Description: Inhibition of ATG4B (unknown origin) using pim-FG-PABA-AMC as substrate by fluorescence based assay

[18] = system: PC-12; test: cells; conditions: Rattus norvegicus
Description: Neuroprotective activity against rat PC12 cells assessed as decrease in H2O2-induced intracellular Ca2+ level preincubated for 12 hrs followed by H2O2-stimulation and measured after 12 hrs by Fluo-3 AM dye based flow cytometry

[19] = target: Translocator protein (Rattus norvegicus, UniProt P16257)
[20] = target: T3, Phosphatidylinositol 4,5-bisphosphate 3-kinase catalytic subunit alpha isoform; remark: listed apart in the source
Description: Inhibition of PI3Kalpha (unknown origin)

[21] = target: T4, Translocator protein
[22] = target: T2, 5'-AMP-activated protein kinase catalytic subunit alpha-2; remark: listed apart in the source
Description: Inhibition of AMPK (unknown origin)

Structure (SMILES): O=C(Oc1cccc(/C=N/Nc2nc(Nc3ccccc3)nc(N3CCOCC3)n2)c1)c1ccco1
- IC50 [1]: 10 nM

Structure (SMILES): CC[C@@H]1[C@@H](C)O[C@@](O)([C@@H](C)[C@H](O)[C@H](C)[C@H]2OC(=O)/C=C/C=C/[C@H](C)[C@@H]([C@@H](C)[C@@H](O)[C@H](C)[C@@]3(O)C[C@@H](O[C@H]4C[C@H](O)[C@H](O)[C@H](C)O4)[C@H](CC)[C@@H](C)O3)OC(=O)/C=C/C=C/[C@@H]2C)C[C@H]1O[C@H]1C[C@H](O)[C@H](O)[C@H](C)O1
- IC50 [2]: 4.2 nM

Structure (SMILES): CCOC(=O)c1[nH]c(Br)c(-c2ccc(OC)c(OC)c2)c1Br
- IC50 [3]: 360 nM

Structure (SMILES): CNC(=O)c1ccccc1Oc1nc(Nc2cc(OC)c(OC)c(OC)c2)ncc1Br
- IC50 [4]: 0.108 µM

Structure (SMILES): Cc1ccc(NC(=O)NCc2ccc3c(c2)CN(C2CCC(=O)NC2=O)C3=O)cc1Cl (stereo not given)
- IC50 [5]: 2 nM

Structure (SMILES): CC(=O)N[C@@H](CC(C)C)C(=O)N[C@@H](CC(C)C)C(=O)N[C@H](C=O)CCCNC(=N)N
- IC50 [6]: 2500 nM

Structure (SMILES): N#CC1C(=O)Nc2scc(-c3ccc(-c4ccccc4O)cc3)c2C1=O (stereo not given)
- EC50 [7]: 800 nM

Structure (SMILES): CN(Cc1ccccc1)S(=O)(=O)c1cc(C(=O)O)c(NCc2ccco2)cc1Cl
- IC50 [1]: 15 nM

Structure (SMILES): CC(=O)O[C@H]1C(=O)[C@]2(C)[C@H](O)C[C@H]3OC[C@@]3(OC(C)=O)[C@H]2[C@H](OC(=O)c2ccccc2)[C@]2(O)C[C@H](OC(=O)[C@H](O)[C@@H](NC(=O)c3ccccc3)c3ccccc3)C(C)=C1C2(C)C
- IC50 [2]: 5 nM

Structure (SMILES): C[C@@H]1COCCN1c1cc(N2CCCC[C@@H]2C(F)(F)F)[nH]c(=O)c1
- IC50 [8]: 14 nM

Structure (SMILES): BrNc1nc(N/N=C\c2c[nH]c3ccccc23)nc(N2CCOCC2)n1
- IC50 [6]: 300 nM

Structure (SMILES): OCc1c(C2CC2)nc2ccccc2c1-c1ccc(F)cc1
- EC50 [7]: 300 nM

Structure (SMILES): CC[C@H](C)[C@H](NC(=O)[C@H](CCCCN)NC(=O)[C@@H](NC(=O)[C@H](CCC(N)=O)NC(=O)[C@@H](N)CCCNC(=N)N)[C@@H](C)CC)C(=O)N[C@@H](Cc1c[nH]c2ccccc12)C(=O)N[C@@H](Cc1ccccc1)C(=O)N[C@@H](CCC(N)=O)C(=O)N[C@@H](CC(N)=O)C(=O)N[C@@H](CCCNC(=N)N)C(=O)N[C@@H](CCCNC(=N)N)C(=O)N[C@@H](CCSC)C(=O)N[C@@H](CCCCN)C(=O)N[C@@H](Cc1c[nH]c2ccccc12)C(=O)N[C@@H](CCCCN)C(=O)N[C@@H](CCCCN)C(=O)N[C@@H](CO)C(=O)N[C@@H](CC(=O)O)C(=O)NCC(=O)NCC(=O)N[C@@H](Cc1ccc(OP(=O)(O)O)cc1)C(=O)N[C@@H](CCSC)C(=O)N[C@@H](CC(=O)O)C(=O)N[C@@H](CCSC)C(=O)N[C@@H](CO)C(=O)O (H-RQIKIWFQNRRMKWKKSDGG[pY]MDMS-OH)
- IC50 [9]: 30 µM

Structure (SMILES): C=CC(C1=CC(=O)C(OC)=CC1=O)c1ccccc1 (stereo not given) [4-METHOXYDALBERGIONE]
- IC50 [2]: 2230 nM

Structure (SMILES): CC[C@@H](C)N(C)C(=O)c1cc2ccccc2c(-c2ccccc2Cl)n1 [(R)PK-11195]
- Ki [10]: 0.4 nM

Structure (SMILES): CN(C)CC[C@H](CSc1ccccc1)Nc1ccc(S(=O)(=O)NC(=O)c2ccc(N3CCN(Cc4ccccc4-c4ccc(Cl)cc4)CC3)cc2)cc1[N+](=O)[O-] [ABT 737]
- Ki [11]: 0.8 nM

Structure (SMILES): COc1ccc(S(=O)(=O)Nc2cccnc2Nc2ccc(O)cc2)cc1 [ABT-751]
- IC50 [3]: 700 nM

Structure (SMILES): C[C@]12CCC(=O)C=C1CC[C@@H]1[C@@H]2[C@@H](O)C[C@]2(C=O)[C@@H](C(=O)CO)CC[C@@H]12 [ALDOSTERONE]
- EC50 [7]: 1.3 nM

Structure (SMILES): C=CCS[S+]([O-])CC=C (stereo not given) [ALLICIN]
- IC50 [12]: 11 nM

Structure (SMILES): CO/C1=C\C(C)=C\[C@@H](C)[C@@H](O)[C@@H](C)C/C(C)=C/C=C/[C@H](OC)[C@@H]([C@@H](C)[C@@H](O)[C@H](C)[C@@]2(O)C[C@@H](O)[C@H](C)[C@@H](C(C)C)O2)OC1=O [BAFILOMYCIN A1]
- IC50 [13]: 0.06 nM

Structure (SMILES): COc1ccc2cc3[n+](cc2c1OC)CCc1cc2c(cc1-3)OCO2 [BERBERINE]
- IC50 [14]: 12 µM

Structure (SMILES): CC(C)=CCC/C(C)=C/Cc1c(O)cc2c(c1O)C(=O)C[C@@H](c1ccc(O)cc1)O2 [BONANNIONE A]
- IC50 [15]: 3.7 µM

Structure (SMILES): C=C1C(=O)O[C@@H]2/C=C(\C)CC/C=C(\C)CC[C@@H]12 [COSTUNOLIDE]
- IC50 [2]: 2100 nM

Structure (SMILES): c1cc(-c2cnn3cc(-c4ccc(OCCN5CCCCC5)cc4)cnc23)ccn1 [DORSOMORPHIN]
- Ki [16]: 109 nM

Structure (SMILES): O=c1c2ccccc2[se]n1-c1ccccc1 [EBSELEN]
- IC50 [17]: 180 nM

Structure (SMILES): O=C(O[C@@H]1Cc2c(O)cc(O)cc2O[C@@H]1c1cc(O)c(O)c(O)c1)c1cc(O)c(O)c(O)c1 [EPIGALOCATECHIN GALLATE]
- IC50 [18]: 30 nM

Structure (SMILES): CCN(CCO)CCCC(C)Nc1ccnc2cc(Cl)ccc12 (stereo not given) [HYDROXYCHLOROQUINE]
- IC50 [13]: 0.21 nM

Structure (SMILES): CC(C(O)c1ccc(O)cc1)N1CCC(Cc2ccccc2)CC1 (stereo not given) [IFENPRODIL]
- IC50 [19]: 0.73 nM

Structure (SMILES): O=C1C[C@@H](c2ccc(O)cc2)Oc2cc(O)ccc21 [LIQUIRTIGENIN]
- IC50 [3]: 340 nM

Structure (SMILES): COC(=O)C1=C(C)NC(C)=C(C(=O)OC)C1c1ccccc1[N+](=O)[O-] [NIFEDIPINE]
- IC50 [19]: 0.5 nM

Structure (SMILES): COc1cc2c(cc1OC)-c1c(OC)c(OC)cc3ccnc(c13)C2=O [OXOGLAUCINE]
- IC50 [19]: 300 nM

Structure (SMILES): Cc1[nH]c2ccccc2c1CCNCc1ccc(/C=C/C(=O)NO)cc1 [PANOBINOSTAT]
- IC50 [8]: 5 nM

Structure (SMILES): COc1ccc2cc1Oc1ccc(cc1)C[C@@H]1c3cc(c(OC)cc3CCN1C)Oc1c(OC)c(OC)cc3c1[C@@H](C2)N(C)CC3 [PHAEANTHINE]
- IC50 [15]: 0.179 µM

Structure (SMILES): Oc1cc(O)c2c(c1)O[C@@]1(c3ccc(O)c(O)c3)Oc3cc(O)c4c(c3[C@@H]2[C@H]1O)O[C@H](c1ccc(O)c(O)c1)[C@@H](O)C4 [PROANTHOCYANIDIN A1]
- EC50 [7]: 5100 nM

Structure (SMILES): O=C(Nc1ccc(Oc2ccc(Cl)cc2)c(Cl)c1)c1cc(I)cc(I)c1O [RAFOXANIDE]
- IC50 [20]: 13 µM

Structure (SMILES): Oc1ccc(/C=C/c2cc(O)cc(O)c2)cc1 [RESVERATROL]
- IC50 [4]: 50 µM

Structure (SMILES): Cc1nc(C(=O)NCC(=O)O)c(O)c2ccc(Oc3ccccc3)cc12 [ROXADUSTAT]
- IC50 [5]: 10 nM

Structure (SMILES): COc1ccc(-c2cc(=O)c3c(OC)c(OC)c(OC)cc3o2)cc1OC [SINENSETIN]
- IC50 [15]: 3.2 µM

Structure (SMILES): NCCCCNCCCN [SPERMIDINE]
- IC50 [13]: 112000 nM

Structure (SMILES): Cn1nccc1Nc1nccc(-c2cc3c(s2)C(C)(C)N(CCN2CCOCC2)C3=O)n1 [TEMUTERKIB]
- IC50 [2]: 5 nM

Structure (SMILES): CC(C)(C)c1ccc(C(O)CCCN2CCC(C(O)(c3ccccc3)c3ccccc3)CC2)cc1 (stereo not given) [TERFENADINE]
- IC50 [21]: 1 nM

Structure (SMILES): Clc1ccc(C(Cn2ccnc2)OCc2ccsc2Cl)c(Cl)c1 (stereo not given) [TIOCONAZOLE]
- IC50 [17]: 1300 nM

Structure (SMILES): OC[C@H]1O[C@@H](Oc2ccc3c(c2)OC[C@H]2c4cc5c(cc4O[C@@H]32)OCO5)[C@H](O)[C@@H](O)[C@@H]1O [TRIFOLIRHIZIN]
- IC50 [22]: 506 µM

Structure (SMILES): CC(C)Nc1cc(-c2c[nH]c(C(=O)N[C@H](CO)c3cccc(Cl)c3)c2)c(Cl)cn1 [ULIXERTINIB]
- IC50 [2]: 300 nM

Structure (SMILES): C[C@H]1CCCC(=O)CCC/C=C/c2cc(O)cc(O)c2C(=O)O1 [ZEARALENONE]
- IC50 [21]: 500 nM
